The results in this text go back to patent publication US20260216294A1, “BETA 2-ADRENERGIC RECEPTOR AGONISTS FOR TREATMENT OR PREVENTION OF MUSCLE WASTING” (ATROGI AB, priority 2023, published 2026).

For experiment [1], the system named is L6-myotubes. Kind of experiment: Measurement of intracellular cAMP levels in differentiated L6-myotubes (Biological Example 3). The class given is cell-based. To be noted: 0.25 h, intracellular cAMP in differentiated L6-myotubes; compound at 10 μM, activity relative to isoproterenol at 10 μM. In short, it runs like this:
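Intracellular cAMP quantified by AlphaScreen after ethanol extraction and lysis of L6 myotubes. Cells were serum-starved overnight, then exposed for 15 min to compound (final 1×10^−5 M) or isoprenaline in IBMX-containing (1 mM) HBSS buffer, pH 7.4.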
For orientation: cAMP levels reflect the balance of adenylyl cyclase and phosphodiesterase activity.

Experiment [2] relates to L6-myotubes. Put plainly: Glucose uptake in differentiated L6-myotubes (Biological Example 2). To be noted: glucose uptake in differentiated L6-myotubes; compound at 10 μM, activity relative to isoproterenol at 10 μM; read-out: Biological example 2 (GU). The class given is cell-based. The essentials: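 Uptake was quantified as radioactivity in 0.2 M NaOH lysates after a 10 min pulse of 50 nM ^3H-2-deoxyglucose. The pulse followed two agonist exposures at 1×10^−5 M final (isoprenaline or test compound): 1 h 40 min, then 20 min in glucose-free medium after washing. L6 myotubes had been starved overnight in medium with 0.5% fatty-acid-free BSA.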

Take `CO[C@H]1CC[C@H](C[C@@H]2CC[C@H]([C@H](O)c3ccccc3F)N2)CC1` [Compound 337, (R)-[(2R,5S)-5-{[(1r,4S)-4-methoxycyclohexyl]methyl}-2-pyrrolidinyl] (o-fluorophenyl)methanol]: the results for the Emax at 10 µM in the experiment on L6-myotubes [1] and with L6-myotubes [2] were less than 25% and greater than 75%, respectively.

Turning to `CO[C@H]1CC[C@H](C[C@H]2CC[C@H]([C@@H](O)c3ccccc3F)N2)CC1` [Compound 338, (S)-[(2R,5R)-5-{[(1r,4R)-4-methoxycyclohexyl]methyl}-2-pyrrolidinyl](o-fluorophenyl)methanol], the Emax at 10 µM in the experiment with L6-myotubes [1] was less than 25%; in the experiment with L6-myotubes [2], 50 to 75%.

For `CO[C@H]1CC[C@H](C[C@H]2CC[C@H]([C@H](O)c3ccccc3F)N2)CC1` [Compound 339, (R)-[(2R,5R)-5-{[(1r,4R)-4-methoxycyclohexyl]methyl}-2-pyrrolidinyl](o-fluorophenyl)methanol], the Emax at 10 µM with L6-myotubes [1] is less than 25%; in the experiment with L6-myotubes [2] it was greater than 75%.

With `CO[C@H]1CC[C@H](C[C@H]2CC[C@H]([C@@H](O)c3cncc(F)c3)N2)CC1` [Compound 340, (S)-[(2R,5R)-5-{[(1r,4R)-4-methoxycyclohexyl]methyl}-2-pyrrolidinyl](5-fluoro-3-pyridyl)methanol], the results for the Emax at 10 µM in the experiment on L6-myotubes [1] and in the experiment with L6-myotubes [2] were less than 25% and 25 to 50%, respectively.

For `CO[C@H]1CC[C@H](C[C@H]2CC[C@H]([C@H](O)c3cncc(F)c3)N2)CC1` [Compound 341], the Emax at 10 µM is less than 25% in the experiment on L6-myotubes [1] and greater than 75% in the experiment on L6-myotubes [2].

As for `COC(=O)[C@H]1CC[C@H](CCC(C)(C)NC[C@H](O)c2cncc(F)c2)CC1` [Compound 342, methyl (1R,4r)-4-{3-[(R)-2-(5-fluoro-3-pyridyl)-2-hydroxyethylamino]-3-methylbutyl} cyclohexanecarboxylate], the Emax at 10 µM was less than 25% in the experiment with L6-myotubes [1] and greater than 75% in the experiment on L6-myotubes [2].

For `CC(C)(CC[C@H]1CC[C@H](C(=O)O)CC1)NC[C@H](O)c1cncc(F)c1` [Compound 343, (1R,4r)-4-{3-[(R)-2-(5-fluoro-3-pyridyl)-2-hydroxyethylamino]-3-methylbutyl} cyclohexanecarboxylic acid], the Emax at 10 µM in the experiment with L6-myotubes [1] is less than 25%; in the experiment with L6-myotubes [2], 25 to 50%.

With `CC(C)(NC[C@H](O)c1cncc(F)c1)[C@H]1CC[C@H](N)CC1` [Compound 344], the Emax at 10 µM in the experiment on L6-myotubes [1] and with L6-myotubes [2] was less than 25% each time.

For the molecule `CC(C)(NC[C@H](O)c1cncc(F)c1)[C@H]1CC[C@H](NS(C)(=O)=O)CC1` [Compound 345, (R)-1-(5-fluoro-3-pyridyl)-2-{1-methyl-1-[(1r,4R)-4-(mesylamino)cyclohexyl]ethylamino}-1-ethanol], the Emax at 10 µM with L6-myotubes [1] is less than 25%; in the experiment with L6-myotubes [2], 25 to 50%.

Turning to `CC(=O)N[C@H]1CC[C@H](C(C)(C)NC[C@H](O)c2cncc(F)c2)CC1` [Compound 346, N-[(1R,4r)-4-{1-[(R)-2-(5-fluoro-3-pyridyl)-2-hydroxyethylamino]-1-methylethyl}cyclohexyl] acetamide], the results for the Emax at 10 µM in the experiment with L6-myotubes [1] and in the experiment with L6-myotubes [2] were less than 25% and greater than 75%, respectively.

As for `CC(C)(CC[C@H]1CC[C@@H](C(=O)O)CC1)NC[C@H](O)c1cncc(F)c1` [Compound 347, (1S,4s)-4-{3-[(R)-2-(5-fluoro-3-pyridyl)-2-hydroxyethylamino]-3-methylbutyl} cyclohexanecarboxylic acid], the Emax at 10 µM in the experiment on L6-myotubes [1] is less than 25%; in the experiment with L6-myotubes [2], greater than 75%.

On to `CC(C)(CC[C@H]1CC[C@H](C(=O)O)CC1)NC[C@H](O)c1cccc(F)c1` [Compound 348, (1R,4r)-4-{3-[(R)-2-(m-fluorophenyl)-2-hydroxyethylamino]-3-methylbutyl} cyclohexanecarboxylic acid], for which the Emax at 10 µM in the experiment on L6-myotubes [1] and with L6-myotubes [2] was less than 25% in each case.

For `COC(=O)[C@H]1CC[C@@H](CCC(C)(C)NC[C@H](O)c2cncc(F)c2)CC1` [Compound 349, methyl (1S,4s)-4-{3-[(R)-2-(5-fluoro-3-pyridyl)-2-hydroxyethylamino]-3-methylbutyl} cyclohexanecarboxylate], the figures for the Emax at 10 µM with L6-myotubes [1] and with L6-myotubes [2] were 25 to 50% and greater than 75%, respectively.

With `COC(=O)[C@H]1CC[C@H](CCC(C)(C)NC[C@H](O)c2cccc(F)c2)CC1` [Compound 350, methyl (1R,4r)-4-{3-[(R)-2-(m-fluorophenyl)-2-hydroxyethylamino]-3-methylbutyl} cyclohexanecarboxylate], the Emax at 10 µM with L6-myotubes [1] was less than 25%; with L6-myotubes [2], greater than 75%.

For `COC(=O)[C@H]1CC[C@@H](CCC(C)(C)NC[C@H](O)c2cccc(F)c2)CC1` [Compound 351, methyl (1S,4s)-4-{3-[(R)-2-(m-fluorophenyl)-2-hydroxyethylamino]-3-methylbutyl} cyclohexanecarboxylate], the Emax at 10 µM in the experiment with L6-myotubes [1] was 25 to 50%; with L6-myotubes [2] it was greater than 75%.

For `CC(C)(CC[C@H]1CC[C@@H](C(=O)O)CC1)NC[C@H](O)c1cccc(F)c1` [Compound 352, (1S,4s)-4-{3-[(R)-2-(m-fluorophenyl)-2-hydroxyethylamino]-3-methylbutyl} cyclohexanecarboxylic acid], the Emax at 10 µM in the experiment on L6-myotubes [1] is less than 25%; in the experiment with L6-myotubes [2], 25 to 50%.

Regarding `COC(=O)[C@H]1CC[C@H](CC(C)(C)NC[C@H](O)c2cccc(F)c2)CC1` [Compound 353, methyl (1R,4r)-4-{2-[(R)-2-(m-fluorophenyl)-2-hydroxyethylamino]-2-methylpropyl} cyclohexanecarboxylate], the figures for the Emax at 10 µM in the experiment on L6-myotubes [1] and with L6-myotubes [2] were less than 25% and greater than 75%, respectively.

`COC(=O)[C@H]1CC[C@H](CC(C)(C)NC[C@H](O)c2cncc(F)c2)CC1` [Compound 354, methyl (1R,4r)-4-{2-[(R)-2-(5-fluoro-3-pyridyl)-2-hydroxyethylamino]-2-methylpropyl} cyclohexanecarboxylate]: the values for the Emax at 10 µM in the experiment with L6-myotubes [1] and in the experiment on L6-myotubes [2] were less than 25% and 50 to 75%, respectively.

Turning to `CC(C)(C[C@H]1CC[C@H](C(=O)O)CC1)NC[C@H](O)c1cccc(F)c1` [Compound 355, (1R,4r)-4-{2-[(R)-2-(m-fluorophenyl)-2-hydroxyethylamino]-2-methylpropyl} cyclohexanecarboxylic acid], the Emax at 10 µM in the experiment on L6-myotubes [1] is less than 25%; in the experiment with L6-myotubes [2], 50 to 75%.

As for `CC(C)(C[C@H]1CC[C@H](C(=O)O)CC1)NC[C@H](O)c1cncc(F)c1` [Compound 356, (1R,4r)-4-{2-[(R)-2-(5-fluoro-3-pyridyl)-2-hydroxyethylamino]-2-methylpropyl} cyclohexanecarboxylic acid], the Emax at 10 µM in the experiment with L6-myotubes [1] and in the experiment with L6-myotubes [2] was less than 25% each time.

Take `CC(=O)N[C@H]1CC[C@H](CC(C)(C)NC[C@H](O)c2cncc(F)c2)CC1` [Compound 357]: the Emax at 10 µM was less than 25% in the experiment on L6-myotubes [1] and greater than 75% in the experiment with L6-myotubes [2].

For the molecule `CC(C)(CC[C@H]1CC[C@H](N)CC1)NC[C@H](O)c1cncc(F)c1` [Compound 358], the Emax at 10 µM in the experiment on L6-myotubes [1] is less than 25%; in the experiment on L6-myotubes [2] it was 25 to 50%.

In the case of `CC(C)(C[C@H]1CC[C@H](N)CC1)NC[C@H](O)c1cncc(F)c1` [Compound 359, (R)-2-{1,1-dimethyl-2-[(1r,4R)-4-aminocyclohexyl]ethylamino}-1-(5-fluoro-3-pyridyl)-1-ethanol], the Emax at 10 µM is less than 25% with L6-myotubes [1] and greater than 75% in the experiment on L6-myotubes [2].

Consider `CC(C)(C[C@H]1CC[C@H](NS(C)(=O)=O)CC1)NC[C@H](O)c1cncc(F)c1` [Compound 360, (R)-2-{1,1-dimethyl-2-[(1r,4R)-4-(mesylamino)cyclohexyl]ethylamino}-1-(5-fluoro-3-pyridyl)-1-ethanol], for which the Emax at 10 µM in the experiment on L6-myotubes [1] was less than 25%; in the experiment with L6-myotubes [2] it was greater than 75%.

On to `CC(=O)N[C@H]1CC[C@H](CCC(C)(C)NC[C@H](O)c2cncc(F)c2)CC1` [Compound 361, N-[(1R,4r)-4-{3-[(R)-2-(5-fluoro-3-pyridyl)-2-hydroxyethylamino]-3-methylbutyl}cyclohexyl] acetamide], for which the Emax at 10 µM in the experiment with L6-myotubes [1] was less than 25%; in the experiment with L6-myotubes [2] it was greater than 75%.

For the molecule `CC(C)(CC[C@H]1CC[C@H](NS(C)(=O)=O)CC1)NC[C@H](O)c1cncc(F)c1` [Compound 362, (R)-2-{1,1-dimethyl-3-[(1r,4R)-4-(mesylamino)cyclohexyl]propylamino}-1-(5-fluoro-3-pyridyl)-1-ethanol], the Emax at 10 µM is less than 25% in the experiment on L6-myotubes [1] and 50 to 75% with L6-myotubes [2].

Regarding `CO[C@H]1CC[C@H](C[C@]2(C)CC[C@H]([C@@H](O)c3cccc(F)c3)N2)CC1` [Compound 363, (S)-[(2R,5S)-5-methyl-5-{[(1r,4S)-4-methoxycyclohexyl]methyl}-2-pyrrolidinyl](m-fluorophenyl)methanol], the Emax at 10 µM in the experiment with L6-myotubes [1] was less than 25%; in the experiment on L6-myotubes [2] it was greater than 75%.

Take `CO[C@H]1CC[C@H](C[C@]2(C)CC[C@H]([C@H](O)c3cccc(F)c3)N2)CC1` [Compound 364, (R)-[(2R,5S)-5-methyl-5-{[(1r,4S)-4-methoxycyclohexyl]methyl}-2-pyrrolidinyl] (m-fluorophenyl)methanol]: the Emax at 10 µM in the experiment on L6-myotubes [1] is 50 to 75%; in the experiment on L6-myotubes [2] it was greater than 75%.

Turning to `COc1ccc(C[C@@]2(C)CC[C@H]([C@@H](O)c3cccc(F)c3)N2)cc1` [Compound 365, (S)-{(2R,5R)-5-[(p-methoxyphenyl)methyl]-5-methyl-2-pyrrolidinyl}(m-fluorophenyl)methanol], the Emax at 10 µM was less than 25% in the experiment on L6-myotubes [1] and greater than 75% in the experiment with L6-myotubes [2].
